Reference: US20240226057A1, “NEW USE OF MONENSIN” (MAST PHARMA AB, priority 2021, published 2024)
“Also recorded” adds a separate entry of the source.

Assays:
peritoneal MCs = experiment: Mouse peritoneal lavage cells, viability by flow cytometry: MCs; assay type: cell-based; conditions: 0-10 μM for 24 h
Protocol: (§1) Mouse peritoneal cells were treated with monensin and stained with labeled antibodies against CD117 (2B8), FcεRI (MAR-1), Siglec-F (E50-2440), CD11b (M1/70), F4/80 (BM8), CD3 (17A2), CD4 (GK1.5), CD8b (eBioH35-17.2) and CD19 (ebuo1D3).
(§2) To assess cell death, cells were stained with Annexin V and either DRAQ7™ or Via-Probe™ Red Nucleic Acid Stain and analyzed by flow cytometry. To probe pH in acidic organelles, cells were incubated with LysoSensor Blue DND-167, followed by flow cytometry. The relative intracellular pH changes were assessed using the cell-permeable pH-sensitive fluorescent indicator (BCFL-AM). Intracellular calcium changes were assessed using Fluo-4/AM.
(§3) To this end, monensin was added to cells recovered by peritoneal lavage of mice, followed by flow cytometry analysis to assess the effects of monensin on the various cell populations of the peritoneum.
(§4) Peritoneal cell populations were recovered by peritoneal lavage of mice. The gating strategy to identify viable cells and to identify macrophages, lymphocytes, MCs and eosinophils within the peritoneal cell population is shown in (A). […] The panels show quantification of viable (Annexin V^−/Via-Probe^−) cells; in the MC (B), lymphocyte (C), macrophage (D) and eosinophil (E) populations (n=3).

peritoneal macrophages = experiment: Mouse peritoneal lavage cells, viability by flow cytometry: macrophages; assay type: cell-based; conditions: 0-10 μM for 24 h
Protocol: as §1, §2, §3, §4

MCs [1] = experiment: Hexosaminidase release from MCs; assay type: cell-based
[2] = test system: mouse peritoneal cell-derived mast cells (PCMCs); experiment: Annexin V/DRAQ7 cell death assessment in PCMCs; assay type: cell-based; conditions: 24 h incubation
Protocol: as §2
To assess whether monensin also induces cell death of fully mature mast cells, mouse peritoneal cell-derived mast cells (PCMCs) were developed and their sensitivity to monensin was assessed. […] In fact, these mature mast cells were even more sensitive to monensin than were the BMMCs, with significant cell death seen at concentrations down to 10 nM (24 h incubation).

human skin MCs = experiment: Granule acidity, LysoSensor Blue DND-167 staining of human skin MCs; assay type: cell-based; conditions: 0-10 μM for 30 min
Protocol: as §2
(§5) BMMCs were treated with 1 μM monensin for 12 and 24 h, followed by Annexin V/DRAQ7 staining to measure cell death. MCs were gated into cells having high and low maturity, as assessed by SSC analysis for granularity (A). The right panels depict the quantification of apoptotic (Annexin V^+/DRAQ7^−) and necrotic (Annexin V^+/DRAQ7^+) cell death in the respective populations (n=3). (B) BMMCs (0.5×10^6 cells) were developed from WT (FIG. 4B) or serglycin^−/− (SG^−/−) mice (data not shown) and were treated with monensin 0-10 μM for 24 h, followed by cell death assessment (Annexin V/DRAQ7 staining). […] To further assess the impact of the secretory granules on monensin-induced cell death, it was evaluated whether the absence of serglycin, a granule-restricted proteoglycan, affects the response to monensin. […]

[3] = test system: Bone marrow-derived mast cells (BMMCs); conditions: mouse
HEK293 cells = experiment: Cytotoxicity against HEK293 cells (PrestoBlue); assay type: cell-based, human; conditions: 0.01-10 μM for 48 h; much less than on mast cells
[4] = test system: human skin mast cells (hskinMC); experiment: Cell death assessment in human skin mast cells; assay type: cell-based
Protocol: as §2
Next, the inventors assessed if monensin is cytotoxic for human mast cells by assessing its effect on immature human mast cell lines (LUVA, HMC-1) and on fully mature skin mast cells (hskinMC).

[5] = test system: human fibroblast cells (HFL-1); experiment: Cytotoxicity against human fibroblast cells (PrestoBlue); conditions: 0.01-10 μM for 48 h; much less than on mast cells
Caspase 3 & 7 = Caspase 3 & 7 activation in mast cells
human blood monocytes = experiment: Human peripheral blood-derived cells, viability: monocytes; assay type: cell-based
Protocol: (§6) Mononuclear cells and granulocytes were purified from heparinized human peripheral blood. Cells were stained with antibodies against CD4 (RPA-T4), CD8 (RPA-T8), CD19 (HIB19) and CD14 (M5E2) or CCR3 (5E8) and CD15 (W6D3) for analysis of mononuclear cells and granulocytes, respectively.
as §2
(§7) To extend these findings into the corresponding human leukocyte populations, the inventors assessed the effects of monensin on eosinophils (B), human blood monocytes (C), lymphocytes (D), and neutrophils (E).

BMMCs [6] = experiment: Granule acidity, LysoSensor Blue DND-167 staining of BMMCs; assay type: cell-based, mouse; conditions: 0-10 μM for 30 min
Protocol: as §2, §5

BMMCs [7] = experiment: Cytosolic pH in BMMCs (BCFL-AM); assay type: cell-based, mouse; conditions: 4 and 24 h
Protocol: as §2, §5

[8] = test system: Bone marrow-derived mast cells (BMMCs); experiment: BMMC viability, screening and kinetic analysis (Presto Blue / resazurin reduction)
peritoneal lymphocytes = experiment: Mouse peritoneal lavage cells, viability by flow cytometry: lymphocytes; assay type: cell-based; conditions: 0-10 μM for 24 h
Protocol: as §1, §2, §3, §4

MCs [9] = experiment: Cell death in absence or presence of caspase inhibitor Z-DEVD; assay type: cell-based; conditions: 1 or 10 μM monensin, with or without Z-DEVD
Protocol: MCs were treated with 1 or 10 μM monensin, either in the absence or presence of a caspase inhibitor: Z-DEVD. Flow cytometry was used to distinguish between viable (Annexin V^−/DRAQ7^−), apoptotic (Annexin V^+/DRAQ7^−) and necrotic (Annexin V^+/DRAQ7^+) cells. […] In line with the latter, the extent of cell death in response to monensin was not affected by the caspase inhibitor, Z-DEVD (FIG. 3).

human neutrophils = experiment: Human peripheral blood-derived cells, viability: neutrophils; assay type: cell-based
Protocol: as §6, §2, §7

CC[C@]1([C@H]2O[C@H]([C@@H]3O[C@](O)(CO)[C@@H](C)C[C@H]3C)C[C@H]2C)CC[C@@H]([C@@]2(C)CC[C@@]3(C[C@@H](O)[C@H](C)[C@H]([C@H](C)[C@H](OC)[C@H](C)C(=O)O)O3)O2)O1 [Monensin, 4-[2-[5-ethyl-5-[5-[6-hydroxy-6-(hydroxymethyl)-3,5-dimethyl-oxan-2-yl]-3-methyl-oxolan-2-yl]oxolan-2-yl]-9-hydroxy-2,8-dimethyl-1,6-dioxaspiro[4.5]dec7-yl]-3-methoxy-2-methyl-pentanoic acid]
Concentrations at which peritoneal MCs were extensively depleted (down to) (peritoneal MCs): ≥ 10 nM | Response of peritoneal macrophages (peritoneal macrophages): resistant | Release of hexosaminidase (MCs [1]): did not cause | Concentrations with significant cell death in PCMCs (down to) [2]: ≥ 10 nM | LysoSensor Blue DND-167 staining, human skin MCs (human skin MCs): marked reduction | Viability % (1 μM) ([3]; 1 µM): 72% | Viability % (10 μM) ([3]; 24 h, 10 µM): 66% | Concentration from which a cytotoxic effect was exhibited, HEK293 (HEK293 cells): ≥ 1000 nM | Sensitivity of human skin mast cells ([4]; especially after longer incubation time): considerable sensitivity | Type of cell death in human skin mast cells ([4]; sign of necrosis almost negligible): mainly apoptosis | Concentration from which a cytotoxic effect was exhibited, HFL-1 [5]: ≥ 1000 nM | Caspase 3 & 7 activation (Caspase 3 & 7): − | Caspase-3 & 7 activation (Caspase 3 & 7): absence of a positive signal; also recorded: does not cause caspase-3 & 7 activations | Viability of human monocytes (human blood monocytes): no reduction | LysoSensor Blue DND-167 staining / granule acidity, BMMCs (BMMCs [6]): marked reduction | Cytosolic pH (BMMCs [7]): significant drop | Selectivity of cytotoxic effect, mast cells versus HFL-1, HSAEC, HEK-293 [8]: high and selective cytotoxic effect on mast cells | Potency against BMMCs compared with the other drugs ([8]; 0.01-10 μM for 24, 48 or 72 h): markedly more potent than any of the other three drugs | Concentrations showing considerable toxicity to BMMCs (down to) ([8]; 0.01-10 μM for 24, 48 or 72 h, especially after prolonged (72 h) incubation): ≥ 10 nM | Response of peritoneal lymphocytes (peritoneal lymphocytes): resistant | Extent of cell death in presence of caspase inhibitor Z-DEVD (MCs [9]): not affected | Response of human neutrophils (human neutrophils): only marginally affected
